Assay results taken from ChEMBL document CHEMBL1132079, “Combined NK1 and NK2 tachykinin receptor antagonists: synthesis and structure-activity relationships of novel oxazolidine analogues” (Bioorg Med Chem Lett, 1999).

Key:
[1] = target: T1, Substance-K receptor (Cavia porcellus, UniProt Q64077); test: Inhibitory activity against Neurokinin 2 (NK2) receptor from guinea pig ileum; format: tissue-based
T1 sequence (Q64077 whole entry): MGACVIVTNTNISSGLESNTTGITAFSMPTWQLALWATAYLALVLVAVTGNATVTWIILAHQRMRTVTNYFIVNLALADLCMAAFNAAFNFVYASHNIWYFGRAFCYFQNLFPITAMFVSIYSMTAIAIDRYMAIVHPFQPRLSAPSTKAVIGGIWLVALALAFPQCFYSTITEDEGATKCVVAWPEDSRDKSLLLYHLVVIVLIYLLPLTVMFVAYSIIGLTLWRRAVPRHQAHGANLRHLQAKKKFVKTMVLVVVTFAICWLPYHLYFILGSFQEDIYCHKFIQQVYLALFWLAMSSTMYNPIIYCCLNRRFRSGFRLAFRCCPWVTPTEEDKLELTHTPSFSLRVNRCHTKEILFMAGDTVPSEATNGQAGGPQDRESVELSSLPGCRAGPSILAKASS

[2] = target: Substance-P receptor (Cavia porcellus, UniProt P30547); test: Inhibitory activity against Neurokinin 1 (NK1) receptor from guinea pig lung
[3] = test system: Cavia porcellus; test: In vivo inhibitory activity against SP-induced vascular hyperpermeability in guinea pig after iv administration; format: functional; conditions: read-out: ID50 (the source's name)
[4] = test system: Cavia porcellus; test: In vivo inhibitory activity against [Nle10] ]-NKA[4-10]-induced bronchoconstriction in guinea pig after iv administration; format: functional; conditions: read-out: ID50 (the source's name)

Chain of Substance-P receptor (P30547 whole entry): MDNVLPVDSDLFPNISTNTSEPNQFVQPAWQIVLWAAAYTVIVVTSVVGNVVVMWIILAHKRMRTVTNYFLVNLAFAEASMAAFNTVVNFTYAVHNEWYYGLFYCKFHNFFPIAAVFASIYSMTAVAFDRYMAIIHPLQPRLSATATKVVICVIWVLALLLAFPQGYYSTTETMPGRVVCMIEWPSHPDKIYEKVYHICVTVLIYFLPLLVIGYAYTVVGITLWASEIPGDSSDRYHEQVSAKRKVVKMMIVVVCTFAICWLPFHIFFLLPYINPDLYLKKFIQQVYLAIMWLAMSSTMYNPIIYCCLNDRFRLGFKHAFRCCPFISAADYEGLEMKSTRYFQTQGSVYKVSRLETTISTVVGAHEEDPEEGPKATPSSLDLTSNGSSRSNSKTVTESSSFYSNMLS

IC50 [1] | IC50 [2] | SMILES | ED50 [3] | ED50 [4]
34.5 nM | 24.6 nM | COc1cc(C(=O)N2CO[C@](CCN3CCC4(CC3)c3ccccc3C[S+]4[O-])(c3ccc(F)cc3)C2)cc(OC)c1OC (some centres undefined) |  | 
10.3 nM | 48 nM | COc1cc(C(=O)N2CO[C@](CCN3CCC4(CC3)NC(=O)Cc3ccccc34)(c3ccc(F)cc3)C2)cc(OC)c1OC |  | 
11.4 nM | 10.2 nM | COc1cc(C(=O)N2CO[C@](CCN3CCC4(CC3)c3ccccc3C[S+]4[O-])(c3ccc(Cl)c(Cl)c3)C2)cc(OC)c1OC (some centres undefined) | 0.025 mg/kg | 0.074 mg/kg
91.9 nM | 11.2 nM | COc1cc(C(=O)N2CO[C@](CCN3CCC(C(=O)N4CCCC4)(c4ccccc4)CC3)(c3ccc(Cl)c(Cl)c3)C2)cc(OC)c1OC |  | 
4.58 nM | 18.3 nM | COc1cc(C(=O)N2CO[C@](CCN3CCC4(CC3)NC(=O)Cc3ccccc34)(c3ccc(Cl)c(Cl)c3)C2)cc(OC)c1OC |  | 
73 nM | 44.9 nM | COc1cc(C(=O)N2CO[C@](CCN3CCC(C(=O)N4CCOCC4)(c4ccccc4)CC3)(c3ccc(Cl)c(Cl)c3)C2)cc(OC)c1OC |  | 
28.1 nM | 34 nM | COc1cc(C(=O)N2CO[C@](CCN3CCC4(CC3)c3ccccc3CS4(=O)=O)(c3ccc(Cl)c(Cl)c3)C2)cc(OC)c1OC |  | 
5.16 nM | 82.2 nM | COc1cc(C(=O)N2CO[C@](CCN3CCC4(CC3)NC(=O)Cc3ccccc34)(c3ccc(Cl)cc3)C2)cc(OC)c1OC |  | 
10.9 nM | 45 nM | COc1cc(C(=O)N2CO[C@](CCN3CCC4(CC3)NC(=O)Cc3ccccc34)(c3ccc(F)c(F)c3)C2)cc(OC)c1OC |  | 
30.3 nM | 25.5 nM | COc1cc(C(=O)N2CO[C@](CCN3CCC4(CC3)c3ccccc3C[S+]4[O-])(c3ccc(F)c(F)c3)C2)cc(OC)c1OC (some centres undefined) |  | 

SMILES | IC50 [1] | IC50 [2] | ED50 [3] | ED50 [4]
COc1cc(C(=O)N2CO[C@](CCN3CCC(C(=O)N(C)C)(c4ccccc4)CC3)(c3ccc(Cl)cc3)C2)cc(OC)c1OC | 7.39 nM | 78.6 nM |  | 
COc1cc(C(=O)N2CO[C@](CCN3CCC(C(N)=O)(c4ccccc4)CC3)(c3ccc(Cl)c(Cl)c3)C2)cc(OC)c1OC | 142 nM | 9.65 nM |  | 
COc1cc(C(=O)N2CO[C@](CCN3CCC(C(N)=O)(c4ccccc4)CC3)(c3ccc(Cl)cc3)C2)cc(OC)c1OC | 329 nM | 44.4 nM |  | 
COc1cc(C(=O)N2CO[C@](CCN3CCC4(CC3)C(=O)N(C)c3ccccc34)(c3ccc(Cl)c(Cl)c3)C2)cc(OC)c1OC | 51.9 nM | 14.1 nM |  | 
COc1ccc(C(=O)N2CO[C@](CCN3CCC(C(N)=O)(c4ccccc4)CC3)(c3ccc(Cl)c(Cl)c3)C2)cc1 | 292 nM | 112 nM |  | 
COc1cc(C(=O)N2CO[C@](CCN3CCC(C(N)=O)(c4ccccc4)CC3)(c3ccc(F)c(F)c3)C2)cc(OC)c1OC | 328 nM | 16.4 nM |  | 
